These are literature values, as cited in patent US20210353513A1, “STABILIZED OIL-IN-WATER EMULSION” (priority 2018, published 2021).

Turning to `CCCCCCCCCC(=O)OCC(COC(=O)CCCCCCCCC)OC(=O)CCCCCCCCC` [Tricaprin (s, β), Tricaprin], the “Density (g/cm^3) at 20° C.” value is 1.05 g/mL.
